One test concerns Capan2 tumor xenografts. The experiment in a line: Growth of human pancreatic tumor xenografts in SCID mice. Type of test: in vivo. Conditions: for % Tumor Growth Inhibition: Capan2-D01, QD, Treatment Duration 56; for tumor growth inhibition: Capan2. The method, then:
(§1) Female SCID mice were implanted subcutaneously with HPAC or Capan2 tumor cells (human pancreatic carcinoma harboring mutant KRAS gene). When the tumor volume reached ˜150 mm^3, mice were block randomized to different treatment groups (n=8 mice/group). Mice received AKT inhibitor, Compound B, at 10 or 30 mg/kg, once daily (QD). MEK inhibitor, Compound A, was administered at 0.1, 0.3 and 1.0 mg/kg, once daily (QD) alone or at 0.1 and 0.3 mg/kg once daily in combination with AKT inhibitor. Mice were weighed and tumors measured by calipers twice weekly. Treatment was continued till the tumor volume reached >1000 mm^3. Tumor volumes were calculated using the formula: tumor volume=(Length×Width^2)/2. The percentage of tumor growth inhibition was calculated on each day of tumor measurement using the formula: 100×[1−(average growth of the compound-treated tumors/average growth of vehicle-treated control tumors)]. Data is plotted as mean±sem for tumor volume for each group.
On the technique in general: Xenograft models place foreign cells or tissue in a host animal.

In another test the test system is HPAC tumor xenografts. The description is as above. Format: in vivo. Conditions: for % Tumor Growth Inhibition: QD; for tumor growth inhibition: HPAC. The protocol:
as §1

The subject of another test is JIMT-1. The experiment in a line: Cell growth inhibition assay. Format: cell-based, human. The note with it: for IC50: Homo sapiens, JimT-1, breast, HER2+, PIK3CA C420R, single agent, read-out: IC50 Single Agent (mean +/- std); for sensitivity as single agents: JIMT-1. The protocol: (§2) Human breast tumor lines. BT-474, HCC1419, HCC1937, HCC1954, HCC202, KPL-1, MDA-MB-157, MDA-MB-175-VII, MDA-MB-361, MDA-MB-453, SK-BR-3, SUM225PE, UACC893, and ZR-75-1; lung tumor line, CALU-3; and melanoma line, CHL-1, were from ATCC. Human breast tumor line JIMT-1 was from European Collection of Cell Cultures (UK). Human breast tumor lines SUM149PT, SUM190PT and SUM52PE were from Asterand. These lines were cultured in RPMI 1640 medium containing 10% fetal bovine serum (FBS). A head and neck tumor line, LICR LON HN5 (HN5), a gift from the Institute of Cancer Research, Surrey, U.K, was cultured in Dulbecco's modified Eagle medium (DMEM) containing 5% FBS; KPL-4 breast tumor cell line was kindly provided by Dr Junichi Kurebayashi (Kawasaki Medical School, Okayama, Japan) and cultured in DMEM containing 5% FBS. JIMT-1 is a line derived from a patient clinically resistant to trastuzumab (Herceptin®). BT-474-J4 is a single cell clone derived from a pool of BT-474 cells that were selected to grow in lapatinib to a concentration of 3 μM.
(§3) All cells were cultured for a minimum of 72 hours prior to cell plating. Cells were assayed in a 96-well tissue culture plate (NUNC 136102) of RPMI medium containing 10% FBS for all cells at 2,000 cells per well except KPL-4 and HN5 which were plated in DMEM containing 5% FBS at 500 cells per well. Approximately 24 hours after plating, cells were exposed to ten, two-fold or three-fold serial dilutions of compound or the combination of the two agents at a constant molar to molar ratio of 1:1 Compound A to Compound B in RPMI media containing 10% FBS or DMEM containing 5% FBS. Cells were incubated in the presence of compounds for 3 days. ATP levels were determined by adding Cell Titer Glo® (Promega) according to the manufacturer's protocol. Briefly, Cell Titer Glo® was added each plate, incubated for 20 minutes then luminescent signal was read on the SpectraMax L plate reader with a 0.5 sec integration time.
(§4) Inhibition of cell growth was estimated after treatment with compound or combination of compounds for three days and comparing the signal to cells treated with vehicle (DMSO). Cell growth was calculated relative to vehicle (DMSO) treated control wells. Concentration of compound that inhibits 50% of control cell growth (IC50) was interpolated using nonlinear regression with the equation, y=(A+(B−A)/(1+(C/x)̂D))), where A is the minimum response (ymin), B is the maximum response (ymax), C is the inflection point of the curve (EC50) and D is the Hill coefficient. […]

A further test relates to BT-474-J4. Description: Cell growth inhibition assay. Format: cell-based, human. Conditions: BT-474-J4, breast, HER2+, PIK3CA K111N, single agent, read-out: IC50 Single Agent (mean +/- std). The method, then:
as §2, §3, §4

The next test deals with SUM225PE. The experiment in a line: Cell growth inhibition assay. Format: cell-based, human. The note with it: breast, HER2+, WT, single agent, read-out: IC50 Single Agent (mean +/- std). The protocol:
as §2, §3, §4

A further test relates to KPL-1. The experiment in a line: Cell growth inhibition assay. The note with it: Homo sapiens; KPL-1, breast, PIK3CA E545K; single agent; read-out: IC50 Single Agent (mean +/- std). Type of test: cell-based. The method, then:
as §2, §3, §4

The test system of the next test is HCC1419. The experiment in a line: Cell growth inhibition assay. Format: cell-based. Conditions: Homo sapiens; HCC1419, breast, HER2+, WT; single agent; read-out: IC50 Single Agent (mean +/- std). The method, then: as §2, §3, §4
In a further test the test system is BT-474. The experiment in a line: Cell growth inhibition assay. Type of test: cell-based. The note with it: Homo sapiens; BT-474, breast, HER2+, PIK3CA K111N; single agent; read-out: IC50 Single Agent (mean +/- std). The method, then: as §2, §3, §4
A further test concerns SK-BR-3. The experiment in a line: Cell growth inhibition assay. Format: cell-based. Conditions: Homo sapiens; SK-BR-3, breast, HER2+, WT; single agent; read-out: IC50 Single Agent (mean +/- std). The protocol:
as §2, §3, §4

The next test relates to HCC1937. The experiment in a line: Cell growth inhibition assay. Format: cell-based. The note with it: Homo sapiens; HCC1937, breast, PTEN low; single agent; read-out: IC50 Single Agent (mean +/- std). The method, then:
as §2, §3, §4

A further test concerns HCC202. Description: Cell growth inhibition assay. Format: cell-based. The note with it: Homo sapiens; HCC202, breast, HER2+, PIK3CA E545K; single agent; read-out: IC50 Single Agent (mean +/- std). The method, then: as §2, §3, §4
Another test deals with MDA-MB-157. Description: Cell growth inhibition assay. Type of test: cell-based. The note with it: Homo sapiens; MDA-MB-157, breast, WT; single agent; read-out: IC50 Single Agent (mean +/- std). The method, then: as §2, §3, §4

Like-named read-outs stand apart in the source and are kept apart here.

Turning to `CC(=O)Nc1cccc(-n2c(=O)n(C3CC3)c(=O)c3c(Nc4ccc(I)cc4F)n(C)c(=O)c(C)c32)c1` [Compound A, N-{3-[3-cyclopropyl-5-(2-fluoro-4-iodo-phenylamino)-6,8-dimethyl-2,4,7-trioxo-3,4,6,7-tetrahydro-2H-pyrido[4,3-d]pyrimidin-1-yl]phenyl}acetamide], the “% Tumor Growth Inhibition” value with Capan2 tumor xenografts (Compound A 0.1 mg/kg po) was 74%; in the test with Capan2 tumor xenografts (Compound A 0.3 mg/kg po), 90%; in the test with Capan2 tumor xenografts (Compound A 1 mg/kg po), 104%; with HPAC tumor xenografts (HPAC-D01, Compound A 0.1 mg/kg po, Treatment Duration 75), 38%; with HPAC tumor xenografts (HPAC-D01, Compound A 0.3 mg/kg po, Treatment Duration 75) it was 60%; in the test on HPAC tumor xenografts (HPAC-D01, Compound A 1 mg/kg po, Treatment Duration 75), 91%. In addition, the “% Tumor Growth Inhibition” value amounted to 41% in the test with HPAC tumor xenografts (HPAC-D02, Compound A 0.1 mg/kg po, Treatment Duration 74); 65% with HPAC tumor xenografts (HPAC-D02, Compound A 0.3 mg/kg po, Treatment Duration 74); 89% with HPAC tumor xenografts (HPAC-D02, Compound A 1 mg/kg po, Treatment Duration 74). For the same compound, the tumor growth inhibition in the test on Capan2 tumor xenografts (0.1 mg/kg) is 70%; in the test on Capan2 tumor xenografts (0.3 mg/kg), 87%; with Capan2 tumor xenografts (1.0 mg/kg) it was 104%; in the test on HPAC tumor xenografts (0.1 mg/kg QD), about 40%; in the test with HPAC tumor xenografts (0.3 mg/kg QD), about 60%; with HPAC tumor xenografts (1 mg/kg QD), about 90%. Further, the IC50 with JIMT-1, in the test on BT-474-J4 (Homo sapiens), with SUM225PE (Homo sapiens), with KPL-1, in the test with HCC1419 and with BT-474 was over 1000 nM throughout. The IC50 in the test on SK-BR-3, in the test on HCC1937, with HCC202 and with MDA-MB-157 was over 1000 nM throughout. The “sensitivity as single agents” value with JIMT-1 is listed as “not sensitive”.

`Cn1ncc(Cl)c1-c1cc(C(=O)N[C@H](CN)Cc2ccc(F)c(F)c2)oc1Cl` [Compound B, N-{(1S)-2-amino-1-[(3,4-difluorophenyl)methyl]ethyl}-5-chloro-4-(4-chloro-1-methyl-1H-pyrazol-5-yl)-2-furancarboxamide]: the “% Tumor Growth Inhibition” value is given as 22% in the test with Capan2 tumor xenografts (Compound B 10 mg/kg po); 26% with Capan2 tumor xenografts (Compound B 30 mg/kg po); 11% with HPAC tumor xenografts (HPAC-D01, Compound B 10 mg/kg po, Treatment Duration 75); 40% in the test with HPAC tumor xenografts (HPAC-D01, Compound B 30 mg/kg po, Treatment Duration 75); 15% in the test on HPAC tumor xenografts (HPAC-D02, Compound B 10 mg/kg po, Treatment Duration 74); 31% with HPAC tumor xenografts (HPAC-D02, Compound B 30 mg/kg po, Treatment Duration 74). In addition, the tumor growth inhibition is listed as 27-30% in the test with Capan2 tumor xenografts (at both 10 and 30 mg/kg doses); 11-15% in the test with HPAC tumor xenografts (10 mg/kg QD, two independent studies); 31-40% in the test on HPAC tumor xenografts (30 mg/kg QD, two independent studies). Besides, the IC50 in the test with JIMT-1 is over 1000 nM; in the test with BT-474-J4, 217 nM; in the test with BT-474-J4 (Homo sapiens), 271 nM; in the test on SUM225PE (Homo sapiens), under 1000 nM; in the test on SUM225PE, 529 nM; with KPL-1 it was over 1000 nM. For the same compound, the IC50 with HCC1419, with BT-474, in the test on SK-BR-3, with HCC1937, in the test with HCC202 and in the test with MDA-MB-157 was over 1000 nM each time. Further, in the test with JIMT-1, the “sensitivity as single agents” value is given as “not sensitive”.

The values above are taken from patent US20150094321A1, “COMBINATION” (GlaxoSmithKline LLC, priority 2009, published 2015).
